Data from paper PMC9688344, “[^225Ac]Ac-SibuDAB for Targeted Alpha Therapy of Prostate Cancer: Preclinical Evaluation and Comparison with [^225Ac]Ac-PSMA-617” (Cancers, 2022).

Test system: immunocompetent FVB mice
Test: Tolerability study in immunocompetent mice
Format: in vivo
From the text: Five- to six-week-old immunocompetent, female FVB mice were purchased from Charles River Laboratories (Sulzfeld, Germany). After an acclimatization period of at least 7 days, the mice (n = 5 per group) were intravenously injected with 30 kBq [^225Ac]Ac-SibuDAB or 30 kBq [^225Ac]Ac-PSMA-617 and additional mice (n = 7 per group) remained untreated as controls. Mice were monitored by measuring their body mass and potential signs of pain or unease three times a week (Supplementary Material: Section S7). The mice were euthanized on Day 10, Day 28 or on Day 56, respectively, and variable parameters were assessed from blood and tissue samples.
Hematological analysis was performed using blood samples taken by cardiac puncture immediately after euthanasia. Blood and bone marrow smears were prepared and stained using the Pappenheim protocol. The assessment was carried out by a board-certified veterinary anatomic pathologist (AnaPath Services GmbH, Liestal, Switzerland). Blood plasma parameters were determined in plasma after centrifugation of blood samples obtained shortly before euthanasia (Supplementary Material: Section S7).
Tissue sections of formalin-fixed paraffin-embedded (FFPE) spleen, salivary glands and kidneys were prepared and stained with hematoxylin and eosin (H&E) by AnaPath Services GmbH (Liestal, Switzerland). The tissues were analyzed by a board certified veterinary pathologist using a pre-defined scoring system (Supplementary Material: Section S7). […]
The percentage of radioligand bound to mouse or human plasma (A bound) was plotted against the molar ratios of MSA/HSA to radioligand and fitted with a nonlinear regression curve (specific binding with Hill slope, Bmax set to 100%) using GraphPad Prism software (version 8) to obtain the half maximum binding (B 50).
Results: The results are reported in the main article.
Purpose: A tolerability study with normal, immunocompetent FVB mice was con-ducted in order to assess potential side effects to the bone marrow, spleen, salivary glands and kidneys after the application of high activities of the 225Ac-labeled PSMA radioligands.
Methods: Monitoring Body Mass and Signs of Unease: Mice were monitored by meas-uring their body mass (BM) three times a week. The body masses were expressed as the relative body mass, defined as [BMx/BM0], where BMx is the body mass in grams on a given Day x and BM0 is the body mass in grams on Day 0. Endpoint criteria, defined as (i) >15% loss in body mass, (ii) signs of unease and pain or a combination thereof based on a scoring system, were not reached in this stu dy.
Hematology: Blood cell counts were determined in blood samples taken by cardiac puncture immediately after euthanasia and collected in EDTA tubes (Microvette® 100 K3 EDTA, Sarstedt, Germany). Leukocyte, lymphocyte, erythrocyte and thrombocyte counts as well as hemoglobin and hematocrit values were determined using a hematology ana-lyzer (VetScan HM5, Abaxis, United States). Blood smears were prepared on glass slides with cardiac blood. The bone marrow was collected from the femur, diluted in FCS/H2O (2:1 v/v) and smeared onto microscopy slides using a paintbrush. The slides were stained with a May Grünwald solution and subsequently with diluted Giemsa solution using the Pappenheim method and covered with coverslips using mounting medium (Pertex).
The assessment of potential morphological ch anges of the blood cells and counting of the subgroups of leukocytes was performed by a board-certified veterinary pathologist (Ana-Path Services GmbH, Liestal, Switzerland).
Histopathological Analysis: Spleen, salivary glands and kidneys were formalin-fixed and paraffin-embedded. Tissue sections were stained with hematoxylin & eosin (H&E) […]
Blood Plasma Parameters: Blood plasma parameters were determined in plasma ob-tained from centrifuged retrobulbar blood samples collected in lithium-heparin tubes (Mi-crovette® 200 LH, SARSTEDT). The concentrations of blood urea nitrogen (BUN), alkaline […]

O=C([O-])CN1CCN(CC(=O)[O-])CCN(CC(=O)NCC2CCC(C(=O)NC(Cc3ccc4ccccc4c3)C(=O)NCCCCC(NC(=O)NC(CCC(=O)O)C(=O)O)C(=O)O)CC2)CCN(CC(=O)[O-])CC1.[225Ac+3] (stereo not shown) [[^225Ac]Ac-PSMA-617]
Tolerability (body mass) (30 kBq per mouse, until Day 56): well tolerated | Kidneys: Hyperplasia/hypertrophy, tubular, incidence (Day 10, 30 kBq): 2 | Kidneys: Hyperplasia/hypertrophy, tubular, score average (Day 10, 30 kBq): 1.0 | Kidneys: Hypertrophy/hyperplasia, tubular with ectasia, incidence (Day 10, 30 kBq): 0 | Kidneys: Hypertrophy/hyperplasia, tubular with ectasia, score average (Day 10, 30 kBq): 0.0 | Kidneys: Inflammatory cells, interstitium, incidence (Day 10, 30 kBq): 0 | Kidneys: Inflammatory cells, interstitium, score average (Day 10, 30 kBq): 0.0 | Kidneys: Inflammatory cells, pelvis, incidence (Day 10, 30 kBq): 0 | Kidneys: Inflammatory cells, pelvis, score average (Day 10, 30 kBq): 0.0 | Kidneys: Mineralization, papilla, incidence (Day 10, 30 kBq): 0 | Kidneys: Mineralization, papilla, score average (Day 10, 30 kBq): 0.0 | Kidneys: Tubular basophilia, incidence (Day 10, 30 kBq): 0 | Kidneys: Tubular basophilia, score average (Day 10, 30 kBq): 0.0 | Salivary glands: Ductal hyperplasia with inflammatory cells, incidence (Day 10, 30 kBq): 0 | Salivary glands: Ductal hyperplasia with inflammatory cells, score average (Day 10, 30 kBq): 0.0 | Salivary glands: Hypertrophy acinar, sublingual, incidence (Day 10, 30 kBq): 0 | Salivary glands: Hypertrophy acinar, sublingual, score average (Day 10, 30 kBq): 0.0 | Salivary glands: Mononuclear cell foci, incidence (Day 10, 30 kBq): 1 | Salivary glands: Mononuclear cell foci, score average (Day 10, 30 kBq): 1.0 | Salivary glands: Necrosis, multifocal, serous acinar cells, incidence (Day 10, 30 kBq): two out of five | Salivary glands: Necrosis, multifocal, serous acinar cells, score average (Day 10, 30 kBq): 1.0 | Salivary glands: Vacuolation, incidence (Day 10, 30 kBq): 0 | Salivary glands: Vacuolation, score average (Day 10, 30 kBq): 0.0 | Spleen: Extramedullary hematopoiesis, incidence (Day 10, 30 kBq): 5 | Spleen: Extramedullary hematopoiesis, score average (Day 10, 30 kBq): 1.0 | Spleen: Hyperplasia, lymphoid, incidence (Day 10, 30 kBq): 1 | Spleen: Hyperplasia, lymphoid, score average (Day 10, 30 kBq): 1.0 | Spleen: Pigment, incidence (Day 10, 30 kBq): 5 | Spleen: Pigment, score average (Day 10, 30 kBq): 1.0 | mice with relative increase of neutrophilic blasts (metamyelocytes) in peripheral blood (Day 10, 30 kBq): two out of five | myelopoiesis in bone marrow smears (group value) (Day 10, 30 kBq): 62% | Salivary glands: Necrosis, multifocal, serous acinar cells, incidence (Day 10, 30 kBq, listed as [225Ac]Ac-PSMA-617): 2 | Blood smear, Notes (Day 10, mouse M1): More neutrophilic blasts (Metamyelocyte) | Bone marrow % E (Day 10, mouse M1): 50% | Bone marrow % M (Day 10, mouse M1): 50% | Blood smear, Notes (Day 10, mouse M2): More neutrophilic blasts (Metamyelocyte) | Bone marrow % E (Day 10, mouse M2): 60% | Bone marrow % M (Day 10, mouse M2): 40% | Bone marrow % E (Day 10, mouse M3): 20% | Bone marrow % M (Day 10, mouse M3): 80% | Bone marrow smear, Notes (Day 10, mouse M3): More blasts, neutrophilic row | Bone marrow % E (Day 10, mouse M4): 30% | Bone marrow % M (Day 10, mouse M4): 70% | Bone marrow smear, Notes (Day 10, mouse M4): More blasts, neutrophilic row | Bone marrow % E (Day 10, mouse M5): 30% | Bone marrow % M (Day 10, mouse M5): 70% | Bone marrow smear, Notes (Day 10, mouse M5): More blasts, neutrophilic row | Albumin concentration in blood plasma (Day 28, 30 kBq): 23 g/L | Blood urea nitrogen (Day 28, 30 kBq): 8.7 ± 1.1 mmol/L | Erythrocyte counts (Day 28, 30 kBq): 8.7 ± 0.3 × 10^12/L | Hematocrit (Day 28, 30 kBq): 43 ± 3% | Hemoglobin (Day 28, 30 kBq): 11.3 ± 0.5 g/dL | Kidneys: Hyperplasia/hypertrophy, tubular, incidence (Day 28, 30 kBq): 1 | Kidneys: Hyperplasia/hypertrophy, tubular, score average (Day 28, 30 kBq): 1.0 | Kidneys: Hypertrophy/hyperplasia, tubular with ectasia, incidence (Day 28, 30 kBq): 0 | Kidneys: Hypertrophy/hyperplasia, tubular with ectasia, score average (Day 28, 30 kBq): 0.0 | Kidneys: Inflammatory cells, interstitium, incidence (Day 28, 30 kBq): 0 | Kidneys: Inflammatory cells, interstitium, score average (Day 28, 30 kBq): 0.0 | Kidneys: Inflammatory cells, pelvis, incidence (Day 28, 30 kBq): 0 | Kidneys: Inflammatory cells, pelvis, score average (Day 28, 30 kBq): 0.0 | Kidneys: Mineralization, papilla, incidence (Day 28, 30 kBq): 1 | Kidneys: Mineralization, papilla, score average (Day 28, 30 kBq): 1.0 | Kidneys: Tubular basophilia, incidence (Day 28, 30 kBq): 1 | Kidneys: Tubular basophilia, score average (Day 28, 30 kBq): 1.0 | Salivary glands: Ductal hyperplasia with inflammatory cells, incidence (Day 28, 30 kBq): 0 | Salivary glands: Ductal hyperplasia with inflammatory cells, score average (Day 28, 30 kBq): 0.0 | Salivary glands: Hypertrophy acinar, sublingual, incidence (Day 28, 30 kBq): 0 | Salivary glands: Hypertrophy acinar, sublingual, score average (Day 28, 30 kBq): 0.0 | Salivary glands: Mononuclear cell foci, incidence (Day 28, 30 kBq): 1 | Salivary glands: Mononuclear cell foci, score average (Day 28, 30 kBq): 1.0 | Salivary glands: Necrosis, multifocal, serous acinar cells, incidence (Day 28, 30 kBq): all five | Salivary glands: Necrosis, multifocal, serous acinar cells, score average (Day 28, 30 kBq): 1.8 | Salivary glands: Vacuolation, incidence (Day 28, 30 kBq): 0 | Salivary glands: Vacuolation, score average (Day 28, 30 kBq): 0.0 | Spleen: Extramedullary hematopoiesis, incidence (Day 28, 30 kBq): 5 | Spleen: Extramedullary hematopoiesis, score average (Day 28, 30 kBq): 1.8 | Spleen: Hyperplasia, lymphoid, incidence (Day 28, 30 kBq): 5 | Spleen: Hyperplasia, lymphoid, score average (Day 28, 30 kBq): 1.0 | Spleen: Pigment, incidence (Day 28, 30 kBq): 5 | Spleen: Pigment, score average (Day 28, 30 kBq): 1.8 | Salivary glands: Necrosis, multifocal, serous acinar cells, incidence (Day 28, 30 kBq, listed as [225Ac]Ac-PSMA-617): 5 | Bone marrow % E (Day 28, mouse M1): 50% | Bone marrow % M (Day 28, mouse M1): 50% | Bone marrow % E (Day 28, mouse M2): 40% | Bone marrow % M (Day 28, mouse M2): 60% | Bone marrow % E (Day 28, mouse M3): 40% | Bone marrow % M (Day 28, mouse M3): 60% | Bone marrow % E (Day 28, mouse M4): 50% | Bone marrow % M (Day 28, mouse M4): 50% | Bone marrow % E (Day 28, mouse M5): 40% | Bone marrow % M (Day 28, mouse M5): 60% | Kidneys: Hyperplasia/hypertrophy, tubular, incidence (Day 56, 30 kBq): 1 | Kidneys: Hyperplasia/hypertrophy, tubular, score average (Day 56, 30 kBq): 1.0 | Kidneys: Hypertrophy/hyperplasia, tubular with ectasia, incidence (Day 56, 30 kBq): 0 | Kidneys: Hypertrophy/hyperplasia, tubular with ectasia, score average (Day 56, 30 kBq): 0.0 | Kidneys: Inflammatory cells, interstitium, incidence (Day 56, 30 kBq): 0 | Kidneys: Inflammatory cells, interstitium, score average (Day 56, 30 kBq): 0.0 | Kidneys: Inflammatory cells, pelvis, incidence (Day 56, 30 kBq): 0 | Kidneys: Inflammatory cells, pelvis, score average (Day 56, 30 kBq): 0.0 | Kidneys: Mineralization, papilla, incidence (Day 56, 30 kBq): 0 | Kidneys: Mineralization, papilla, score average (Day 56, 30 kBq): 0.0 | Kidneys: Tubular basophilia, incidence (Day 56, 30 kBq): 1 | Kidneys: Tubular basophilia, score average (Day 56, 30 kBq): 1.0 | Salivary glands: Ductal hyperplasia with inflammatory cells, incidence (Day 56, 30 kBq): 0 | Salivary glands: Ductal hyperplasia with inflammatory cells, score average (Day 56, 30 kBq): 0.0 | Salivary glands: Hypertrophy acinar, sublingual, incidence (Day 56, 30 kBq): 0 | Salivary glands: Hypertrophy acinar, sublingual, score average (Day 56, 30 kBq): 0.0 | Salivary glands: Mononuclear cell foci, incidence (Day 56, 30 kBq): 2 | Salivary glands: Mononuclear cell foci, score average (Day 56, 30 kBq): 1.0 | Salivary glands: Necrosis, multifocal, serous acinar cells, incidence (Day 56, 30 kBq): 0 | Salivary glands: Necrosis, multifocal, serous acinar cells, score average (Day 56, 30 kBq): 0.0 | Salivary glands: Vacuolation, incidence (Day 56, 30 kBq): 0 | Salivary glands: Vacuolation, score average (Day 56, 30 kBq): 0.0 | Spleen: Extramedullary hematopoiesis, incidence (Day 56, 30 kBq): 5 | Spleen: Extramedullary hematopoiesis, score average (Day 56, 30 kBq): 1.4 | Spleen: Hyperplasia, lymphoid, incidence (Day 56, 30 kBq): 0 | Spleen: Hyperplasia, lymphoid, score average (Day 56, 30 kBq): 0.0 | Spleen: Pigment, incidence (Day 56, 30 kBq): 5 | Spleen: Pigment, score average (Day 56, 30 kBq): 2.0 | Bone marrow % E (Day 56, mouse M1): 30% | Bone marrow % M (Day 56, mouse M1): 70% | Bone marrow % E (Day 56, mouse M2): 40% | Bone marrow % M (Day 56, mouse M2): 60% | Bone marrow % E (Day 56, mouse M3): 30% | Bone marrow % M (Day 56, mouse M3): 70% | Bone marrow % E (Day 56, mouse M4): 40% | Bone marrow % M (Day 56, mouse M4): 60%
